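Method: 48-hour compound exposure of cells in 96-well plates, five concentrations, linear interpolation of endpoints. Abbreviation: GI50, concentration required for 50% inhibition of growth.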 The source made the active and inactive calls. Rule as the data show it: active = GI50 up to about 1.1 µM and inactive = higher.
Assays:
Assay in all cases: DTP human tumour cell line panel, 48 h
MDA-N = tested on: MDA-N
A498 = tested on: A498
M14 = tested on: M14
KM12 = tested on: KM12
NCI-H23 = tested on: NCI-H23
SK-OV-3 = tested on: SK-OV-3
SNB-75 = tested on: SNB-75
MCF7 = tested on: MCF7
HCT-116 = tested on: HCT-116
IGROV-1 = tested on: IGROV-1
NCI-H226 = tested on: NCI-H226
OVCAR-4 = tested on: OVCAR-4
CAKI-1 = tested on: CAKI-1
TK-10 = tested on: TK-10
HCT-15 = tested on: HCT-15
NCI-H460 = tested on: NCI-H460
A549 = tested on: A549
CCRF-CEM = tested on: CCRF-CEM
SF-295 = tested on: SF-295

| SMILES | GI50 (MDA-N) | GI50 (A498) | GI50 (M14) | GI50 (KM12) | GI50 (NCI-H23) | GI50 (SK-OV-3) | GI50 (SNB-75) | GI50 (MCF7) | GI50 (HCT-116) | GI50 (IGROV-1) | GI50 (NCI-H226) | GI50 (OVCAR-4) | GI50 (CAKI-1) | GI50 (TK-10) | GI50 (HCT-15) [µM] | GI50 (NCI-H460) | GI50 (A549) | GI50 (CCRF-CEM) | GI50 (SF-295) |
| --- | --- | --- | --- | --- | --- | --- | --- | --- | --- | --- | --- | --- | --- | --- | --- | --- | --- | --- | --- |
| O=C1Sc2ccccc2NC1=C(C(=O)c1ccccc1)C(=O)c1ccccc1 | 33.7 µM (inactive) | 34.8 µM (inactive) | 15.2 µM (inactive) | 31.6 µM (inactive) | 22.6 µM (inactive) | 21.7 µM (inactive) | 31.6 µM (inactive) | 2.44 µM (inactive) | 18.7 µM (inactive) | 38.4 µM (inactive) | 19.4 µM (inactive) | 69.8 µM (inactive) | 56.2 µM (inactive) | 26.1 µM (inactive) | 19.5 | 9.95 µM (inactive) | 27.5 µM (inactive) | 1.18 µM (inactive) | 20.6 µM (inactive) |
| C=CCNC(=O)CN(CC(=O)O)C1CCCCC1N(CC(=O)O)CC(=O)O (stereo unspecified) | > 100 µM (inactive) | > 100 µM (inactive) | – | > 100 µM (inactive) | > 100 µM (inactive) | > 100 µM (inactive) | > 100 µM (inactive) | > 100 µM (inactive) | > 100 µM (inactive) | > 100 µM (inactive) | > 100 µM (inactive) | > 100 µM (inactive) | > 100 µM (inactive) | > 100 µM (inactive) | > 100 | > 100 µM (inactive) | > 100 µM (inactive) | > 100 µM (inactive) | > 100 µM (inactive) |
| Cc1cc(S(=O)(=O)/N=C(\NN)NCC(=O)NN)c(S)cc1Cl | > 10 µM (inactive) | > 10 µM (inactive) | > 10 µM (inactive) | > 10 µM (inactive) | > 10 µM (inactive) | > 10 µM (inactive) | > 10 µM (inactive) | > 10 µM (inactive) | > 10 µM (inactive) | > 10 µM (inactive) | > 10 µM (inactive) | > 10 µM (inactive) | > 10 µM (inactive) | > 10 µM (inactive) | > 10 | > 10 µM (inactive) | > 10 µM (inactive) | > 10 µM (inactive) | > 10 µM (inactive) |
| O=c1c2c3c(sc2nc2n1NC=NN2)CCCC3 | 16 µM (inactive) | > 53.6 µM (inactive) | 25.8 µM (inactive) | 18.1 µM (inactive) | 26.2 µM (inactive) | 42.8 µM (inactive) | 23.8 µM (inactive) | 13.8 µM (inactive) | 17.9 µM (inactive) | 26.6 µM (inactive) | 17.3 µM (inactive) | 17.6 µM (inactive) | 18 µM (inactive) | 24 µM (inactive) | 17.4 | 20.2 µM (inactive) | > 83.4 µM (inactive) | 0.731 µM (active) | 15.8 µM (inactive) |
| Cc1c(C)n(-c2ccccc2)c2nc(S(C)(=O)=O)nc(S(C)(=O)=O)c12 | 1.64 µM (inactive) | 14.1 µM (inactive) | 1.62 µM (inactive) | 13.7 µM (inactive) | 7.82 µM (inactive) | 19.6 µM (inactive) | 19.3 µM (inactive) | 1.25 µM (inactive) | 1.53 µM (inactive) | 4.72 µM (inactive) | 21.4 µM (inactive) | 1.65 µM (inactive) | 0.171 µM (active) | 1.58 µM (inactive) | 1.61 | 16.9 µM (inactive) | 16 µM (inactive) | 0.634 µM (active) | 16.9 µM (inactive) |
| O=C1CC(Br)c2c(Br)sc(Br)c21 (stereo unspecified) | 15.5 µM (inactive) | 91.4 µM (inactive) | 15.8 µM (inactive) | 22.9 µM (inactive) | 16.7 µM (inactive) | 28.8 µM (inactive) | 23.1 µM (inactive) | 16.5 µM (inactive) | 13.6 µM (inactive) | 16.6 µM (inactive) | 29.8 µM (inactive) | 17.3 µM (inactive) | 22 µM (inactive) | 18.5 µM (inactive) | 16.9 | 17.3 µM (inactive) | 29.1 µM (inactive) | 2.51 µM (inactive) | 27.7 µM (inactive) |
| c1ccc(CSCCC(SCc2ccccc2)SCc2ccccc2)cc1 | > 10 µM (inactive) | > 10 µM (inactive) | > 10 µM (inactive) | > 10 µM (inactive) | > 10 µM (inactive) | > 10 µM (inactive) | > 10 µM (inactive) | > 10 µM (inactive) | > 10 µM (inactive) | > 10 µM (inactive) | > 10 µM (inactive) | > 10 µM (inactive) | > 10 µM (inactive) | > 10 µM (inactive) | > 10 | > 10 µM (inactive) | > 10 µM (inactive) | > 10 µM (inactive) | > 10 µM (inactive) |
| C[C@H]1C[C@H]2[C@@H]3CCC4=CC(=O)C=C[C@]4(C)C3=CC[C@]2(C)[C@@]1(O)C(=O)CO | > 100 µM (inactive) | 23.4 µM (inactive) | > 100 µM (inactive) | > 100 µM (inactive) | 95.1 µM (inactive) | > 100 µM (inactive) | > 100 µM (inactive) | > 100 µM (inactive) | > 100 µM (inactive) | > 100 µM (inactive) | > 100 µM (inactive) | > 100 µM (inactive) | > 100 µM (inactive) | > 100 µM (inactive) | > 100 | > 100 µM (inactive) | > 100 µM (inactive) | 66.8 µM (inactive) | > 100 µM (inactive) |
| O=[N+]([O-])c1ccc(NC(=S)N/N=C(\c2ccccc2)c2ccccn2)cc1 | 1.6 µM (inactive) | 1.75 µM (inactive) | 1.02 µM (active) | 1.7 µM (inactive) | 2.18 µM (inactive) | 1.4 µM (inactive) | 2.1 µM (inactive) | 1.43 µM (inactive) | 1.49 µM (inactive) | 1.64 µM (inactive) | 1.47 µM (inactive) | 1.73 µM (inactive) | 1.6 µM (inactive) | 1.24 µM (inactive) | 0.119 | 4.85 µM (inactive) | 1.82 µM (inactive) | < 0.0184 µM (active) | 1.55 µM (inactive) |
| O=c1[nH]c(=O)n(C2OC(CO)C(O)C2O)c2c1CCCC2 (stereo unspecified) | > 100 µM (inactive) | > 100 µM (inactive) | > 100 µM (inactive) | > 100 µM (inactive) | > 100 µM (inactive) | > 100 µM (inactive) | > 100 µM (inactive) | > 100 µM (inactive) | > 100 µM (inactive) | > 100 µM (inactive) | > 100 µM (inactive) | > 100 µM (inactive) | > 100 µM (inactive) | > 100 µM (inactive) | > 100 | > 100 µM (inactive) | > 100 µM (inactive) | > 100 µM (inactive) | > 100 µM (inactive) |
| C=CC(O)(CBr)CCC(Br)C(=C)C (stereo unspecified) | > 10 µM (inactive) | > 10 µM (inactive) | > 10 µM (inactive) | > 10 µM (inactive) | > 10 µM (inactive) | > 10 µM (inactive) | > 10 µM (inactive) | > 10 µM (inactive) | > 10 µM (inactive) | > 10 µM (inactive) | > 10 µM (inactive) | > 10 µM (inactive) | > 10 µM (inactive) | > 10 µM (inactive) | > 10 | > 10 µM (inactive) | > 10 µM (inactive) | > 10 µM (inactive) | > 10 µM (inactive) |
| Cc1ccc(S(=O)(=O)N2CCc3cc(O)c([N+](=O)[O-])cc32)cc1 | > 100 µM (inactive) | > 100 µM (inactive) | > 100 µM (inactive) | > 100 µM (inactive) | > 100 µM (inactive) | > 100 µM (inactive) | > 100 µM (inactive) | > 100 µM (inactive) | > 100 µM (inactive) | > 100 µM (inactive) | > 100 µM (inactive) | > 100 µM (inactive) | > 100 µM (inactive) | > 100 µM (inactive) | > 100 | – | > 100 µM (inactive) | > 100 µM (inactive) | > 100 µM (inactive) |
| O=c1c2cc(I)ccc2nc(S)n1Cc1ccccc1 | 9.2 µM (inactive) | 18.8 µM (inactive) | 9.25 µM (inactive) | 9.08 µM (inactive) | 7.59 µM (inactive) | 27.5 µM (inactive) | 20.6 µM (inactive) | 28.1 µM (inactive) | 9.14 µM (inactive) | 4.07 µM (inactive) | 15.5 µM (inactive) | 9.71 µM (inactive) | 1.92 µM (inactive) | 16.8 µM (inactive) | 32.1 | 6.93 µM (inactive) | 15.9 µM (inactive) | 5.69 µM (inactive) | 9.02 µM (inactive) |
| Cc1cccc2c1[nH]c1[nH]c(=O)[nH]c(=O)c12 | > 100 µM (inactive) | > 100 µM (inactive) | > 100 µM (inactive) | > 100 µM (inactive) | > 100 µM (inactive) | > 100 µM (inactive) | 13 µM (inactive) | > 100 µM (inactive) | > 100 µM (inactive) | > 100 µM (inactive) | > 100 µM (inactive) | > 100 µM (inactive) | > 100 µM (inactive) | > 100 µM (inactive) | > 100 | – | > 100 µM (inactive) | > 100 µM (inactive) | > 100 µM (inactive) |
| CCn1c(=O)c2c3ccc(O)cc3[nH]c2c2ccc(O)cc21 | 66.4 µM (inactive) | > 100 µM (inactive) | > 100 µM (inactive) | > 100 µM (inactive) | > 100 µM (inactive) | > 100 µM (inactive) | 66.2 µM (inactive) | 50.7 µM (inactive) | 45.4 µM (inactive) | > 100 µM (inactive) | > 100 µM (inactive) | > 100 µM (inactive) | > 100 µM (inactive) | > 100 µM (inactive) | > 100 | – | > 100 µM (inactive) | 55.8 µM (inactive) | > 100 µM (inactive) |
